Where “and” joins values, the source holds several entries; their conditions need not be identical. Identical values can stand only once.
How the values were obtained:
[1] = system: gastrointestinal nematodes; assay: Sheep Test I: nematode recovery at necropsy, controlled anthelmintic test efficacy; assay type: in vivo; settings: for Mean Ct, Abomasum Haemonchus / Mean Ct, Abomasum ostertagia / Mean Ct, Small Intest. Nematodirus / Mean Ct, Small Intestine Trichostrongylus: group mean; for Mean Ct, Abomasum Haemonchus / Mean Ct, Abomasum ostertagia / Mean Ct, Small Intest. Nematodirus / Mean Ct, Small Intestine Trichostrongylus / Worm Counts, Abomasum Haemonchus / Worm Counts, Abomasum ostertagia / Worm Counts, Small Intest. Nematodirus / Worm Counts, Small Intestine Trichostrongylus: necropsy seven days following treatment; for Worm Counts, Abomasum Haemonchus / Worm Counts, Abomasum ostertagia / Worm Counts, Small Intest. Nematodirus / Worm Counts, Small Intestine Trichostrongylus: individual sheep
Procedure: Sheep naturally infected with a variety of gastrointestinal nematodes are purchased from local sources and are transported to the test site. The animals are housed in a manner to preclude further infection by nematode larvae. The animals are evaluated for the presence of adequate nematode burdens by performing a standard fecal egg per gram (EPG) count. Eggs are differentiated into the following groups: trichostrongyle (strongyle), Strongyloides, Trichuris, or Nematodinis. Only sheep judged by the study parasitologist to have adequate nematode infections are retained as test subjects. The sheep are fed good quality hay (no concentrated rations) and water ad libitum. Following a five-day acclimation period, the sheep are randomly assigned by EPG count into treatment groups which include non-treated Negative control (placebo); […] The first replicate of 10 animals is randomly assigned to groups 1-10; the second replicate of 10 animals is randomly assigned to groups 1-10; and the third replicate of 10 animals is randomly assigned to groups 1-10. Thus 10 groups of 3 animals each is created. The placebo (DMSO), the commercially available drug, and the test anthelmintic compounds are administered in a 3 ml volume by subcutaneous injection using a sterile syringe fitted with a proper needle. The animal is adequately immobilized for injection of the placebo, commercially available drug, or test anthelmintic compound. Seven days following treatment the sheep are humanely slaughtered in accordance with the Guide for the Care and Use of Laboratory Animals (DHEW Publication No. 86-23). Necropsy procedures are according to Zimmerman Research SOP # […].99.01, Necropsy for Helminth Recovery, specifically for gastrointestinal nematodes. Fecal samples are taken for EPG counts during the sample collection process on this day. All animals are necropsied, but only the animals from the experimental treatment groups that have a significant egg count reduction on day 5 or day 7 will have intestinal material collected for nematode recovery and identification. Nematodes are recovered, identified, and enumerated according to Zimmerman Research SOP # […].99.01. All individuals performing nematode recoveries are blinded to treatment versus control animals. Preliminary estimates of total nematodes recovered from each gut sample are provided prior to identification and enumerations by the study parasitologist. At the discretion of the study parasitologist, seven days after the drug administration fecal egg counts are performed and all animals showing 90% or better trichostrongylid egg reduction will be slaughtered using humane methods recommended by the AVMA. The neck blood vessels are severed and after the animal is completely exsanguinated, the abdomen are opened. The abomasum, the small and large intestines are tied at the omasal and pyloric openings, the duodenum, the end of the small intestine and at the end of the large intestine. Each section is transferred in a separate bucket containing warm water and is slit open and thoroughly washed. The epithelium is inspected before it is removed. The thus prepared washings are saved in gallon jars. An appropriate preservative is added. If preservative is not available, all the intestinal washing should kept in a refrigerator. These washings are passed through a 100-mesh sieve (pore size […]), and the residue is examined for the presence of worms under a dissecting microscope, Lugol's solution may be used to stain the worms. All worms are picked up counted and identified as to the species. An effort should be made to recover any immature forms present.

[2] = system: gastrointestinal nematodes; assay: Sheep Test II: nematode recovery at necropsy, controlled test efficacy; assay type: in vivo; settings: for Mean Ct., Abomasum Haemonchus / Mean Ct., Abomasum Ostertagia / Mean Ct., Large Intest. Trichuris / Mean Ct., Small Intest. Nematodirus / Mean Ct., Small Intestine Trichostrongylus: group mean; for Mean Ct., Abomasum Haemonchus / Mean Ct., Abomasum Ostertagia / Mean Ct., Large Intest. Trichuris / Mean Ct., Small Intest. Nematodirus / Mean Ct., Small Intestine Trichostrongylus / Worm Counts, Abomasum Haemonchus / Worm Counts, Abomasum ostertagia / Worm Counts, Large Intest. Trichuris / Worm Counts, Small Intest. Nematodirus / Worm Counts, Small Intestine Trichostrongylus: necropsy seven days following treatment; for Worm Counts, Abomasum Haemonchus / Worm Counts, Abomasum ostertagia / Worm Counts, Large Intest. Trichuris / Worm Counts, Small Intest. Nematodirus / Worm Counts, Small Intestine Trichostrongylus: individual sheep
Procedure: Sheep naturally infected with a variety of gastrointestinal nematodes are purchased from local sources and are transported to the test site. The animals are housed in a manner to preclude further infection by nematode larvae. The animals are evaluated for the presence of adequate nematode burdens by performing a standard fecal egg per gram (EPG) count. Eggs are differentiated into the following groups: trichostrongyle (strongyle), Strongyloides, Trichuris, or Nematodiris. Only sheep judged by the study parasitologist to have adequate nematode infections are retained as test subjects. The sheep are fed good quality hay (no concentrated rations) and water ad libitum. Following a five day acclimation period, the sheep are randomly assigned by EPG count into the following treatment groups: Groups 1-9, various anthelmintic compounds of the present invention (test compound) dissolved in DMSO: […] Group 11, non-treated Negative control (DMSO only). The first replicate of 1 I animals is randomly assigned to groups 1-1; the second replicate of 11 animals is randomly assigned to groups 1-11; and the third replicate of 11 animals is randomly assigned to groups 1-1. Thus 11 groups of 3 animals each are created. The placebo (DMSO), the commercially available drug, and the test anthelmintic compounds are administered in a 3 ml volume of DMSO by subcutaneous injection using a sterile syringe fitted with a sterile needle. The site of injection is clipped and swabbed with alcohol prior to injection. The animal is adequately immobilized for injection of the placebo, commercially available drug, or experimental compound. Seven days following treatment, all the sheep are weighed and humanely slaughtered in accordance with the Guide for the Care and Use of Laboratory Animals (DHEW Publication No. 86-23). Necropsy procedures are according to Zimmerman Research SOP # […].00.01, Necropsy for Helminth Recovery, specifically for gastrointestinal nematodes. Fecal samples are taken for EPG counts during the sample collection process on this day. Nematodes are recovered, identified, and enumerated according to Zimmerman Research SOP # […].00.01. All individuals performing nematode recoveries are blinded to treatment versus control animals.

[3] = Ivermectin 200 mcg/kg, vs negative control mean count
[4] = Ivermectin 200 mcg/kg, controlled test procedure
[5] = AKC 109 1.4 mg/kg, vs negative control mean count

## 22,23-dihydroavermectin B1 [ivermectin]
[1]; [3]
  % Efficacy, Abomasum Haemonchus: 100%
  % Efficacy, Abomasum ostertagia: 100%
  % Efficacy, Small Intest. Nematodirus: 100%
  % Efficacy, Small Intestine Trichostrongylus: 100%
[1]; Ivermectin 200 mcg/kg
  Mean Ct, Abomasum Haemonchus: 0
  Mean Ct, Abomasum ostertagia: 0
  Mean Ct, Small Intest. Nematodirus: 0
  Mean Ct, Small Intestine Trichostrongylus: 0
  Worm Counts, Abomasum Haemonchus: 0
  Worm Counts, Abomasum ostertagia: 0
  Worm Counts, Small Intest. Nematodirus: 0
  Worm Counts, Small Intestine Trichostrongylus: 0
[2]; [4]
  % Efficacy, Abomasum Haemonchus: 86%
  % Efficacy, Abomasum ostertagia: 100%
  % Efficacy, Small Intest. Nematodirus: 98%
  % Efficacy, Small Intestine Trichostrongylus: 100%
[2]; Ivermectin 200 mcg/kg
  Mean Ct., Abomasum Haemonchus: 7
  Mean Ct., Abomasum Ostertagia: 0
  Mean Ct., Large Intest. Trichuris: 0
  Mean Ct., Small Intest. Nematodirus: 67
  Mean Ct., Small Intestine Trichostrongylus: 0
  Worm Counts, Abomasum Haemonchus: 0 (2×) and 20
  Worm Counts, Abomasum ostertagia: 0
  Worm Counts, Large Intest. Trichuris: 0
  Worm Counts, Small Intest. Nematodirus: 100 (2×) and 0
  Worm Counts, Small Intestine Trichostrongylus: 0

## CCC1CCCCN1c1cc(Oc2ccc3oc4ccccc4c3c2)ncn1 (centres unmarked) [AKC 109]
[1]; [5]
  % Efficacy, Abomasum ostertagia: 98%
  % Efficacy, Small Intest. Nematodirus: 57%
[1]; AKC 109 1.4 mg/kg
  Mean Ct, Abomasum Haemonchus: 507
  Mean Ct, Abomasum ostertagia: 7
  Mean Ct, Small Intest. Nematodirus: 353
  Mean Ct, Small Intestine Trichostrongylus: 233
[1]; AKC 109 1.4 mg/kg, 1.4 mg/kg
  Worm Counts, Abomasum Haemonchus: 20 and 1500 and 0
  Worm Counts, Abomasum ostertagia: 20 and 0 (2×)
  Worm Counts, Small Intest. Nematodirus: 100 and 500 and 460
  Worm Counts, Small Intestine Trichostrongylus: 540 and 160 and 0
[2]; AKC 109 .8 mg/kg, controlled test procedure
  % Efficacy, Abomasum Haemonchus: 100%
[2]; AKC 109 .8 mg/kg
  Mean Ct., Abomasum Haemonchus: 0
  Mean Ct., Abomasum Ostertagia: 690
  Mean Ct., Large Intest. Trichuris: 3
  Mean Ct., Small Intest. Nematodirus: 7120
  Mean Ct., Small Intestine Trichostrongylus: 130
  Worm Counts, Abomasum Haemonchus: 0
  Worm Counts, Abomasum ostertagia: 1100 and 280
  Worm Counts, Large Intest. Trichuris: 5 and 0
  Worm Counts, Small Intest. Nematodirus: 12020 and 2220
  Worm Counts, Small Intestine Trichostrongylus: 240 and 20
